Source: US4508727A, “Antihypertensive 2-oxo-imidazolidine derivatives” (Tanabe Seiyaku Co., Ltd., priority 1982, dated 1985)
Values belong to the compound of their own block, whether it stands above or below them.

What was measured:
ACE [1] = experiment: ACE-inhibitory activity in vivo, pressor response to angiotensin I, intravenous, cats; design: species or system cat; conditions: normotensive cats, 10 γ/kg intravenously, angiotensin I 600 ng/kg
Procedure: (§1) Normotensive rats and normotensive cats were anesthetized with urethane (1.2 g/kg, s.c.), and angiotensin I (rat: 300 ng/kg, cat: 600 ng/kg) was injected into the jugular vein of the rats and the femoral vein of the cats. The pressor response to angiotensin I was measured with a pressure transducer connected to the carotid artery. Then, a test compound was injected intravenously thereto at a dose of 10 γ/kg, and angiotensin I (rat: 300 ng/kg, cat: 600 ng/kg) was further injected intravenously at intervals. The ACE-inhibitory activity of the test compound was estimated by dose-response curve measured from the pressor responses to angiotensin I which were obtained before and after intravenous injection of the test compound.

ACE [2] = experiment: ACE-inhibitory activity in vivo, pressor response to angiotensin I, intravenous, rats; design: species or system rat; conditions: normotensive rats, 10 γ/kg intravenously, angiotensin I 300 ng/kg
Procedure: as §1

[3] = molecular target: T1, angiotensin-converting enzyme (ACE) isolated from pig's renal cortex (Sus scrofa, UniProt F1RRW5); experiment: ACE-inhibitory activity in vitro; assay type: biochemical; conditions: substrate hippuryl-histidyl-leucine, 37° C., 20 minutes
T1 construct: isolated from pig's renal cortex; from tissue; host or cells: pig renal cortex
T1 sequence (F1RRW5 34-1309): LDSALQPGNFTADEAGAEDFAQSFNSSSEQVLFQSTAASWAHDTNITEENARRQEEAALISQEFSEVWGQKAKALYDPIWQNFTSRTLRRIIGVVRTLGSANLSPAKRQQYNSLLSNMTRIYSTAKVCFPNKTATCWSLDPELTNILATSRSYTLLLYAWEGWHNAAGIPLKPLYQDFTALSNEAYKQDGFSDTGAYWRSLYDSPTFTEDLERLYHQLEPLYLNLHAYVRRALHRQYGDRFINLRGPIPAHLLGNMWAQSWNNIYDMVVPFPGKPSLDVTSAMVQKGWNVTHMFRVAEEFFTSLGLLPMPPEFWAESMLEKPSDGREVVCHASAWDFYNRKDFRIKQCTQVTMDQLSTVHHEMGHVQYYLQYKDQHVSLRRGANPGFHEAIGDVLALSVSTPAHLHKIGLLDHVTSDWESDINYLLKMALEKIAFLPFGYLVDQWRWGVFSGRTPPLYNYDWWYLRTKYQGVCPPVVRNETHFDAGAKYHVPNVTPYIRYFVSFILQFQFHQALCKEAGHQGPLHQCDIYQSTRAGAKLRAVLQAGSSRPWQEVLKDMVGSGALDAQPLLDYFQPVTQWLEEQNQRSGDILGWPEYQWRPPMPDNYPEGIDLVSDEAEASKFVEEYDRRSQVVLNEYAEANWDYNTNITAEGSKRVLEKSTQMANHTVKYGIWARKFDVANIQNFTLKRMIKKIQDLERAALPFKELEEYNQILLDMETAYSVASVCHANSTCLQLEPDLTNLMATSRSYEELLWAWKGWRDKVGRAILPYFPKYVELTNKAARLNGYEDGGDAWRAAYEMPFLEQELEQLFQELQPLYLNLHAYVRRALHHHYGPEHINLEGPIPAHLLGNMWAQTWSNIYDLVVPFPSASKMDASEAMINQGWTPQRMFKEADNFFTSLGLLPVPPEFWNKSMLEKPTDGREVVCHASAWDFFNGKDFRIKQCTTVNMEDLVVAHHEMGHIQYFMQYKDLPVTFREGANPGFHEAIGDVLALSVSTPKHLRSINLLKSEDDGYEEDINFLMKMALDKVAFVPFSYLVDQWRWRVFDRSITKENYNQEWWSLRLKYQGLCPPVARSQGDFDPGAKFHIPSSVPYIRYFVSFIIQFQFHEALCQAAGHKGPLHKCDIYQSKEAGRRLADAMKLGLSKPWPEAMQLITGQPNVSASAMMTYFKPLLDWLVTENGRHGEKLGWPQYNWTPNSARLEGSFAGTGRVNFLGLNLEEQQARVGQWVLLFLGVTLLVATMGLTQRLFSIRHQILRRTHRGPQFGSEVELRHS
Procedure: 50 μl of a solution containing 0.01 mole/liter of hippuryl-histidyl-leucine (substrate) and 0-100 μl of a test compound solution were added to 300 μl of a 0.2M tris-hydrochloric acid buffer solution containing 0.2 mole/liter of sodium chloride. The total volume of said mixture was adjusted to 450 μl with water. Then, 50 μl of angiotensin-converting enzyme (ACE) isolated from pig's renal cortex were added to the mixture, and the mixture was allowed to stand at 37° C. for 20 minutes. The amount of histidyl-leucine produced from the substrate by the action of ACE was assayed microbiologically by the use of Leuconostoc mesenteroides P-60, and the ACE-inhibitory activity of the test compound was estimated therefrom.

ACE [4] = experiment: ACE-inhibitory activity in vivo, pressor response to angiotensin I, oral, rats; design: species or system rat; conditions: for ACE-inhibitory activity (%): normotensive rats, 1 mg/kg orally, angiotensin I 300 ng/kg i.v.
Procedure: Normotensive rats were anesthetized with urethane (1.2 g/kg, s.c.), and angiotensin I (300 ng/kg) was injected into the jugular vein of the rats. The pressor response to angiotensin I was measured with a pressure transducer connected to the carotid artery. Then, a test compound was administered orally thereto at a dose of 1 mg/kg, and angiotensin I (300 ng/kg) was further injected intravenously at intervals. The ACE-inhibitoryactivity of the test compound was estimated from the pressor responses to angiotensin I which were obtained before and after oral administration of the test compound.

[5] = system: spontaneously hypertensive rats (SHR); experiment: Hypotensive activity in SHR; assay type: in vivo, rat; conditions: 3 mg/kg orally; for Duration of action / hypotensive activity, Blood pressure (b): measured after administration of the test compound / hypotensive activity, Blood pressure (a): measured before administration of the test compound: SHR; for hypotensive activity, Blood pressure (b): measured after administration of the test compound / hypotensive activity, Blood pressure (a): measured before administration of the test compound: systolic
Procedure: A test compound suspended in an aqueous carboxymethyl-cellulose solution was administered orally (dose: 3 mg/kg) to spontaneously hypertensive rats (SHR) fasted overnight. The systolic blood pressure of the rats was measured by the tail plethysmographic technique (The Journal of Laboratory and Clinical Medicine 78 (1971), page 957). The hypotensive activity of the test compound was estimated from the decreased level of blood pressure.

mice = experiment: toxicity, intravenous administration to mice; assay type: in vivo; conditions: 1000 mg/kg intravenously, 7 days after the administration
Procedure: Further, the toxicity of the compound (I) of the invention is remarkably low. For example, when (4S)-1-benzyl-3-{(2 S)-2-[N-((1S)-1-carboxy-3-phenylpropyl)amino]propionyl}-2-oxo-imidazolidine-4-carboxylic acid and (4S)-1-methyl-3-{(2S)-2-[N-((1S)-1-carboxy-n-nonyl)amino]propionyl}-2-oxo- imidazolidine-4-carboxylic acid were administered intravenously to mice at the dose of 1000 mg/kg, no mice died 7 days after the administration. Thus, angiotensin-dependent hypertension in mammals can be alleviated by administration of the compound (I) of the present invention or a pharmaceutically acceptable salt thereof.

Structure (SMILES): C[C@H](N[C@@H](CCc1ccccc1)C(=O)O)C(=O)N1C(=O)N(C)C[C@H]1C(=O)O [Example 4, (4S)-1-methyl-3-{(2S)-2-[N-((1S)-1-carboxy-3-phenylpropyl)amino]propionyl}-2-oxo-imidazolidine-4-carboxylic acid]
ACE-inhibitory activity (%) (ACE [1]): 40 ± 6% | ACE-inhibitory activity (%) (ACE [2]): 56 ± 3%

Structure (SMILES): CCCCCCCC[C@H](N[C@@H](C)C(=O)N1C(=O)N(Cc2ccccc2)C[C@H]1C(=O)O)C(=O)O [Example 9, (4S)-1-benzyl-3-{(2S)-2-[N-((1S)-1-carboxy-n-nonyl)amino]propionyl}-2-oxo-imidazolidine-4-carboxylic acid]
IC50 [3]: 1.5 nM

Structure (SMILES): CCCCCCCC[C@H](N[C@@H](C)C(=O)N1C(=O)N(C)C[C@H]1C(=O)O)C(=O)OCC [Example 3, (4S)-1-methyl-3-{(2S)-2-[N-((1S)-1-ethoxycarbonyl-n-nonyl)amino]propionyl}-2-oxo-imidazolidine-4-carboxylic acid]
ACE-inhibitory activity (%) (ACE [4]): 56 ± 7% | Duration of action [5]: > 6 h | hypotensive activity, Blood pressure (b): measured after administration of the test compound [5]: 143 ± 4 mm Hg | hypotensive activity, Blood pressure (a): measured before administration of the test compound [5]: 174 ± 5 mm Hg

Structure (SMILES): CCCCCCCC[C@H](N[C@@H](C)C(=O)N1C(=O)N(C)C[C@H]1C(=O)O)C(=O)O [Example 5, (4S)-1-methyl-3-{(2S)-2-[N-((1S)-1-carboxy-n-nonyl)amino]propionyl}-2-oxo-imidazolidine-4-carboxylic acid]
ACE-inhibitory activity (%) (ACE [1]): 36 ± 5% | mortality (mice died) (mice): no mice died | ACE-inhibitory activity (%) (ACE [2]): 47 ± 4%

Structure (SMILES): CC(C)C[C@H](N[C@@H](C)C(=O)N1C(=O)N(Cc2ccccc2)C[C@H]1C(=O)O)C(=O)O [Example 12-(2), (4S)-1-benzyl-3-{(2S)-2-[N-((1S)-1-carboxy-isopentyl)amino]propionyl}-2-oxo-imidazolidine-4-carboxylic acid]
IC50 [3]: 2.1 nM

Structure (SMILES): CCOC(=O)[C@H](CCc1ccccc1)N[C@@H](C)C(=O)N1C(=O)N(C)C[C@H]1C(=O)O [Example 1, (4S)-1-methyl-3-{(2S)-2-[N-((1S)-1-ethoxycarbonyl-3-phenylpropyl)amino]propionyl}-2-oxo-imidazolidine-4-carboxylic acid]
ACE-inhibitory activity (%) (ACE [4]): 60 ± 6% | inhibition of ACE-activity (ACE [4]; rats administered angiotensin I intravenously, 1.0 mg/kg): about 60% | hypotensive activity, Blood pressure (b): measured after administration of the test compound [5]: 136 ± 4 mm Hg | hypotensive activity, Blood pressure (a): measured before administration of the test compound [5]: 181 ± 3 mm Hg | Duration of action ([5]; 3 mg/kg): more than 6 hours | Duration of action ([5]; listed as CH3, CH3, C6 H5 (CH2)2, C2 H5, 3 mg/kg): > 6 h | decrease in blood pressure ([5]; spontaneously hypertensive rats): about 45 mmHg

Structure (SMILES): C[C@H](N[C@@H](CCc1ccccc1)C(=O)O)C(=O)N1C(=O)N(Cc2ccccc2)C[C@H]1C(=O)O [Example 8, (4S)-1-benzyl-3-{(2S)-2-[N-((1S)-1-carboxy-3-phenylpropyl)amino]propionyl}-2-oxo-imidazolidine-4-carboxylic acid]
ACE-inhibitory activity (%) (ACE [1]): 36 ± 8% | mortality (mice died) (mice): no mice died | ACE-inhibitory activity (%) (ACE [2]): 33 ± 4% | IC50 [3]: 1.7 nM

Second part, the compound after the results:

IC50 [3]: 1.4 nM
Structure (SMILES): CCCCCCCC[C@H](N[C@@H](CC)C(=O)N1C(=O)N(Cc2ccccc2)C[C@H]1C(=O)O)C(=O)O [Example 15-(3), (4S)-1-benzyl-3-{(2S)-2-[N-((1S)-1-carboxy-n-nonyl)amino]-n-butyryl}-2-oxo-imidazolidine-4-carboxylic acid]

IC50 [3]: 11 nM
Structure (SMILES): C[C@H](N[C@@H](Cc1ccccc1)C(=O)O)C(=O)N1C(=O)N(Cc2ccccc2)C[C@H]1C(=O)O [Example 14-(3), (4S)-1-benzyl-3-{(2S)-2-[N-((1S)-1-carboxy-2-phenylethyl)amino]propionyl}-2-oxo-imidazolidine-4-carboxylic acid]

IC50 [3]: 2.3 nM
Structure (SMILES): CC[C@H](N[C@@H](CCc1ccccc1)C(=O)O)C(=O)N1C(=O)N(Cc2ccccc2)C[C@H]1C(=O)O [Example 17-(2), (4S)-1-benzyl-3-{(2S)-2-[N-((1S)-1-carboxy-3-phenylpropyl)amino]-n-butyryl}-2-oxo-imidazolidine-4-carboxylic acid]

IC50 [3]: 3.3 nM
Structure (SMILES): CC(C)CC[C@H](N[C@@H](C)C(=O)N1C(=O)N(Cc2ccccc2)C[C@H]1C(=O)O)C(=O)O [Example 13-(2), (4S)-1-benzyl-3-{(2S)-2-[N-((1S)-1-carboxy-4-methyl-n-pentyl)amino]propionyl}-2-oxo-imidazolidine-4-carboxylic acid]
